These results are taken from patent publication US9475824B2, “Fused pyrimidines as inhibitors of p97 complex” (Cleave Biosciences, Inc., priority 2012, dated 2016).

The target of this experiment is p97 (Homo sapiens, UniProt P55072). Kind of experiment: P97 ATPase biochemical assay (ADP Glo). To be noted: 20 nM p97, 20 μM ATP, 37° C. 15 minutes. As for the experimental part:
The ATPase assay is performed according the following protocol: Purified enzyme (20 nM p97), substrate (20 μM ATP) and a dose titration of compounds are mixed in buffer (50 mM TRIS pH 7.5, 20 mM MgCl2, 0.02% TX-100, 1 mM DTT, 0.2% (v/v) glycerol) and incubated at 37° C. for 15 minutes. The reaction is terminated and the level of product generated is measured using the ADP Glo Assay Kit (Promega, Madison Wis.). Plotting product generated versus compound concentration and using a four-parameter fit model generates an IC50 value for each compounds.
The p97 assay is an initial screening assay used to determine inhibitory activity of the fused pyrimidine compounds of the invention against the p97 complex. As discussed above, inhibition of activity of the p97 proteosome complex can enable apoptosis and cause elimination of neoplastic cells (cancer cells). The method follows that of Christianson in Nat.
Assay Buffer is a mixture of 50 mM TRIS pH 7.5, 20 mM MgCl2, 0.02% TX-100, 1 mM DTT and 0.2% (v/v) Glycerol. […] The identification kit is an ADP glo kit (Promega): stop buffer, detection reagent.
0.5 μL compound serial diluted in DMSO (Final Conc. 10%)
2 μL ATP (Final Conc.=20 uM, diluted in assay buffer)
2.5 μL p97 (Final Conc.=20 nM, diluted in assay buffer)
Incubate at 37 degC for 15 min.
Add 5 μL of stop buffer, incubate at RT for 40 min.
Add 10 μL of detection reagent, incubate at RT for 30 min.
Read luminescence on Envision plate reader.
Plot normalized luminescence data against log-transformed concentration values and fit to a sigmoidal curve to determine IC50 values (done in Collaborative Drug Discovery software).
A general note: ADP-Glo turns the ADP formed in a reaction into a luminescent signal.

Each structure is given as a SMILES string.

Sequence of p97 (P55072 whole entry): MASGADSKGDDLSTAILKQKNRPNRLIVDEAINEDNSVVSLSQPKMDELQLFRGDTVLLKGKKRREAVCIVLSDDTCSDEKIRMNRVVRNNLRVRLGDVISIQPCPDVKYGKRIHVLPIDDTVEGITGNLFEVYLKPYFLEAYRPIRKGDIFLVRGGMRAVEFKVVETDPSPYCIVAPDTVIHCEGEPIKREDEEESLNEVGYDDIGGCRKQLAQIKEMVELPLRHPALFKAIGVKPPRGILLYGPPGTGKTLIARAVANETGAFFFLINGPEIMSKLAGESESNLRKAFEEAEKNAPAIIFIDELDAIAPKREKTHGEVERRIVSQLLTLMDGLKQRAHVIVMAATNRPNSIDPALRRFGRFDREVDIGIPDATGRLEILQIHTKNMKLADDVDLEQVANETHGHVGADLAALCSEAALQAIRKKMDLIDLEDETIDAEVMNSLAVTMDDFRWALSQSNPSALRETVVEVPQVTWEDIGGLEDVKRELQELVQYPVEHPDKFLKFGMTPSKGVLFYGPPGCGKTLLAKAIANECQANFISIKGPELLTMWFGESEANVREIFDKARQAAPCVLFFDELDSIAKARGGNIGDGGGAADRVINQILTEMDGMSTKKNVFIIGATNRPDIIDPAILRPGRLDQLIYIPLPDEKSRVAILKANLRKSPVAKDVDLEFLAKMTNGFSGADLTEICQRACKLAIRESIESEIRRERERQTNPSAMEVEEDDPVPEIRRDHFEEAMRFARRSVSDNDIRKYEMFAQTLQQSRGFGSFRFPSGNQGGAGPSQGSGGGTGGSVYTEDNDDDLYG

As a reminder, the IC50 is the concentration that inhibits the measured activity by half. Low values mean greater potency in that assay, high ones weaker potency in that assay. In turn, `COc1cccc2c(NCc3ccccc3)nc(-n3c(OC)nc4ccccc43)nc12` [compound 1, N-benzyl-8-methoxy-2-(2-methoxy-1H-1,3-benzodiazol-1-yl)quinazolin-4-amine] came in with an IC50 of less than 0.1 µM.
The same measure for `Cc1cc2ccccc2n1-c1nc(NCc2ccccc2)c2cccc(CN)c2n1` [compound 2, 8-(aminomethyl)-N-benzyl-2-(2-methyl-1H-indol-1-yl)quinazolin-4-amine]: less than 1 µM; for `COc1nc2ccccc2n1-c1nc(NCc2ccccc2)c2ncsc2n1` [compound 4, N-benzyl-5-(2-methoxy-1H-1,3-benzodiazol-1-yl)-[1,3]thiazolo[5,4-d]pyrimidin-7-amine]: less than 0.1 µM; for `COc1cccc2c(NCc3ccccc3)nc(-n3c(C)cc4ccccc43)nc12` [compound 8, N-benzyl-8-methoxy-2-(2-methyl-1H-indol-1-yl)quinazolin-4-amine]: less than 0.1 µM.
The same measure for `Cc1cc2ccccc2n1-c1nc2c(c(NCc3ccccc3)n1)CNCC2` [compound 10, N-benzyl-2-(2-methyl-1H-indol-1-yl)-5H,6H,7H,8H-pyrido[4,3-d]pyrimidin-4-amine]: less than 0.3 µM.
For the molecule `Cc1cc2ccccc2n1-c1nc2c(c(NCc3ccccc3)n1)CCNC2` [compound 11, N-benzyl-2-(2-methyl-1H-indol-1-yl)-5H,6H,7H,8H-pyrido[3,4-d]pyrimidin-4-amine], the IC50 is less than 0.3 µM.
For the molecule `COc1cccc2c(NCc3ccccc3)nc(-n3c(CN)cc4ccccc43)nc12` [compound 15, 2-[2-(aminomethyl)-1H-indol-1-yl]-N-benzyl-8-methoxyquinazolin-4-amine], the IC50 was less than 0.1 µM.
Regarding `COc1cccc2c(NCc3ccccc3)nc(-c3c(C)oc4ccccc34)nc12` [compound 16, N-benzyl-8-methoxy-2-(2-methyl-1-benzofuran-3-yl)quinazolin-4-amine], the half-inhibitory concentration (IC50) was less than 1 µM.
The same measure for `Cc1cc2ccccc2n1-c1nc(NCc2ccccc2)c2cccc(C(N)=O)c2n1` [compound 17, 4-(benzylamino)-2-(2-methyl-1H-indol-1-yl)quinazoline-8-carboxamide]: less than 0.3 µM; for `Cc1cc2ccccc2n1-c1nc2c(c(NCc3ccccc3)n1)COC2` [compound 18, N-benzyl-2-(2-methyl-1H-indol-1-yl)-5H,7H-furo[3,4-d]pyrimidin-4-amine]: less than 0.3 µM; for `Cc1cc2ccccc2n1-c1nc(NCc2ccccc2)c2cccc(C#N)c2n1` [compound 19, 4-(benzylamino)-2-(2-methyl-1H-indol-1-yl)quinazoline-8-carbonitrile]: less than 1 µM.
With `CC(=O)N1CCc2c(nc(-n3c(C)cc4ccccc43)nc2NCc2ccccc2)C1` [compound 20, 1-[4-(benzylamino)-2-(2-methyl-1H-indol-1-yl)-5H,6H,7H,8H-pyrido[3,4-d]pyrimidin-7-yl]ethan-1-one] the figure was less than 0.1 µM; with `CC(N)c1cc2ccccc2n1-c1nc2c(c(NCc3ccccc3)n1)CCCC2` (centres unmarked) [compound 22, 2-[2-(1-aminoethyl)-1H-indol-1-yl]-N-benzyl-5,6,7,8-tetrahydroquinazolin-4-amine], less than 1 µM.
`COCCOc1cccc2c(NCc3ccccc3)nc(-n3c(CN)cc4ccccc43)nc12` [compound 23] yielded an IC50 of less than 0.3 µM.
With `Cc1cc2c(F)cccc2n1-c1nc2c(c(NCc3ccccc3)n1)CNCC2` [compound 41, N-benzyl-2-(4-fluoro-2-methyl-1H-indol-1-yl)-5H,6H,7H,8H-pyrido[4,3-d]pyrimidin-4-amine] the figure was less than 0.3 µM; with `COc1cccc2c1cc(C)n2-c1nc2c(c(NCc3ccccc3)n1)CNCC2` [compound 43], less than 1 µM.
With `CCN1CCc2nc(-n3c(C)cc4ccccc43)nc(NCc3ccccc3)c2C1` [compound 63, N-benzyl-6-ethyl-2-(2-methyl-1H-indol-1-yl)-5H,6H,7H,8H-pyrido[4,3-d]pyrimidin-4-amine] the figure was less than 1 µM; with `CCCN1CCc2nc(-n3c(C)cc4ccccc43)nc(NCc3ccccc3)c2C1` [compound 65, N-benzyl-2-(2-methyl-1H-indol-1-yl)-6-propyl-5H,6H,7H,8H-pyrido[4,3-d]pyrimidin-4-amine], less than 1 µM; with `Cc1nc2c(C(N)=O)cccc2n1-c1nc2c(c(NCc3ccccc3)n1)CNCC2` [compound 83, 1-[4-(benzylamino)-5H,6H,7H,8H-pyrido[4,3-d]pyrimidin-2-yl]-2-methyl-1H-1,3-benzodiazole-4-carboxamide], less than 1 µM.
The same measure for `NCc1cc2c(C(N)=O)cccc2n1-c1nc2c(c(NCc3ccccc3)n1)COCC2` [compound 86, 2-(aminomethyl)-1-[4-(benzylamino)-5H,7H,8H-pyrano[4,3-d]pyrimidin-2-yl]-1H-indole-4-carboxamide]: less than 0.1 µM; for `N#Cc1cccc2c1nc(CN)n2-c1nc2c(c(NCc3ccccc3)n1)CCCC2` [compound 87, 2-(aminomethyl)-1-[4-(benzylamino)-5,6,7,8-tetrahydroquinazolin-2-yl]-1H-1,3-benzodiazole-4-carbonitrile]: less than 1 µM; for `COCCOc1cccc2c(NCc3ccccc3)nc(-n3c(CN)nc4c(C(N)=O)cccc43)nc12` [compound 88, 2-(aminomethyl)-1-[4-(benzylamino)-8-(2-methoxyethoxy)quinazolin-2-yl]-1H-1,3-benzodiazole-4-carboxamide]: less than 1 µM.
On to `Oc1nc2ccccc2n1-c1nc2c(c(NCc3ccccc3)n1)CCCC2` [compound 89, 1-[4-(benzylamino)-5,6,7,8-tetrahydroquinazolin-2-yl]-1H-1,3-benzodiazol-2-ol], for which the concentration for half-maximal inhibition (IC50) is less than 1 µM.
With `COc1cc2c(C(N)=O)cccc2n1-c1nc2c(c(NCc3ccccc3)n1)CNCC2` [compound 92, 1-[4-(benzylamino)-5H,6H,7H,8H-pyrido[4,3-d]pyrimidin-2-yl]-2-methoxy-1H-indole-4-carboxamide] the figure was less than 1 µM.
As to `CN(C)Cc1cc2c(C(N)=O)cccc2n1-c1nc2c(c(NCc3ccccc3)n1)COCC2` [compound 95, 1-[4-(benzylamino)-5H,7H,8H-pyrano[4,3-d]pyrimidin-2-yl]-2-[(dimethylamino)methyl]-1H-indole-4-carboxamide], the half-maximal inhibitory concentration (IC50) was less than 1 µM.
The molecule `Cc1cc2c(C(=O)NC(C)C)cccc2n1-c1nc2c(c(NCc3ccccc3)n1)COCC2` [compound 99, 1-[4-(benzylamino)-5H,7H,8H-pyrano[4,3-d]pyrimidin-2-yl]-2-methyl-N-(propan-2-yl)-1H-indole-4-carboxamide] showed an IC50 of less than 1 µM.
Molecule `Cc1cc2c(C(=O)NCCN(C)C)cccc2n1-c1nc2c(c(NCc3ccccc3)n1)COCC2` [compound 102, 1-[4-(benzylamino)-5H,7H,8H-pyrano[4,3-d]pyrimidin-2-yl]-N-[2-(dimethylamino)ethyl]-2-methyl-1H-indole-4-carboxamide] yielded a half-inhibitory concentration (IC50) of less than 1 µM.
Consider `COc1nc2c(C(=O)O)cccc2n1-c1nc2c(c(NCc3ccccc3)n1)CCCC2` [compound 116, 1-[4-(benzylamino)-5,6,7,8-tetrahydroquinazolin-2-yl]-2-methoxy-1H-1,3-benzodiazole-4-carboxylic acid], for which the IC50 was less than 0.03 µM.
The same measure for `Cc1cc2c(C(=O)O)cccc2n1-c1nc2c(c(NCc3ccccc3)n1)CNCC2` [compound 117, 1-[4-(benzylamino)-5H,6H,7H,8H-pyrido[4,3-d]pyrimidin-2-yl]-2-methyl-1H-indole-4-carboxylic acid]: less than 0.1 µM.
